The results in this text go back to ChEMBL document CHEMBL5131488, “Design and synthesis of pyrido[2,3-d]pyrimidine derivatives for a novel PAC1 receptor antagonist” (Eur J Med Chem, 2022).

pIC50: −log10 of the molar value. Values after ≈ are worked out from the molar mass of the structure shown. Active and inactive are the calls of the source. No cut-off for these calls is given here.

Data set [1] deals with T1, Pituitary adenylate cyclase-activating polypeptide type I receptor (Homo sapiens, UniProt P41586). Description: Antagonist activity at PAC-1 receptor (unknown origin) expressed in CHO cells assessed as inhibition of PACAP-induced CREB phosphorylation at 1 nM pretreated for 30 mins followed by PACAP stimulation for 30 mins by western blot analysis. The data set is classed as cell-based. Particulars: filed as antagonist, time 60.0 min. A general note: In western blotting, separated proteins are transferred to a membrane and probed.
Target sequence in this assay (P41586 21-468 limits assumed): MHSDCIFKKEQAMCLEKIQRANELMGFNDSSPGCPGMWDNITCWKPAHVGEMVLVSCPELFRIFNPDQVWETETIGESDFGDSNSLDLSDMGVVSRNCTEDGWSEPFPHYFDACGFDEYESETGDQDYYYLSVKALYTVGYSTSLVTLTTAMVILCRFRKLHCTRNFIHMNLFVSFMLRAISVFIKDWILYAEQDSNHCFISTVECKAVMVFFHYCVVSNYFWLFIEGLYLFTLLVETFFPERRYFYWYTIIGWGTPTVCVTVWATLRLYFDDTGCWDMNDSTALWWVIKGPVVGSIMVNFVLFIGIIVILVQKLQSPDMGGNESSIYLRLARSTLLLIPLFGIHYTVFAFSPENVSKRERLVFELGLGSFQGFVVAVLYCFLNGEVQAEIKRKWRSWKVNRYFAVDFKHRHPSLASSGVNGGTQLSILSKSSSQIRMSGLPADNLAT

Data set [2] is described as follows: Plasma protein binding in mouse measured after 5 hrs by LC-MS/MS analysis. The data set is classed as ADME, cell-free. Particulars: read-out: PPB (converted).
The nature of data set [3]: Metabolic stability in mouse liver microsomes assessed as parent compound remaining in presence of NADPH at 0.5 uM measured after 60 mins by LC-MS/MS analysis. It counts as ADME, Microsome. Particulars: read-out: Stability.
Data set [4] is described as follows: Metabolic stability in human liver microsomes assessed as parent compound remaining in presence of NADPH at 0.5 uM measured after 60 mins by LC-MS/MS analysis. It counts as ADME, Microsome. Particulars: read-out: Stability. In general terms: Liver microsomes are vesicles of endoplasmic reticulum, rich in cytochrome P450 enzymes.
Data set [5] can be described thus: Half life in C57BL/6J mouse at 30 mg/kg, ip measured up to 24 hrs by LC-MS/MS analysis. It counts as ADME, organism-based. Particulars: in vivo.
The test system of data set [6] is Mus musculus. Description: Antiallodynic activity in ddY mouse assessed as inhibition of spinal nerve ligation-evoked mechanical allodynia at 10 pmol administered via IT as single dose and measured after 3 hrs. The data set is classed as functional, organism-based.
Data set [7] concerns Mus musculus. Description: Antiallodynic activity in ddY mouse assessed as inhibition of SNL-induced mechanical allodynia at 30 mg/kg, ip administered once daily for 7 days and measured at 1 hr post-last dosage. It counts as functional, organism-based. Particulars: time 7.0 day.
Data set [8] concerns Mus musculus. Description: Antiallodynic activity in ddY mouse assessed as inhibition of PACAP-evoked mechanical allodynia at 10 to 100 pmol administered via IT as single dose and measured after 14 days. The data set is classed as functional, organism-based. Particulars: dose 10-100 pmol, time 14.0 day.
Data set [9] in a line: Plasma protein binding in human measured after 5 hrs by LC-MS/MS analysis. Particulars: read-out: PPB (converted). It counts as ADME, cell-free.
Data set [10] has as its target T1, Pituitary adenylate cyclase-activating polypeptide type I receptor. Description: Antagonist activity at PAC-1 receptor (unknown origin) expressed in CHO cells assessed as inhibition of PACAP-induced increase in intracellular cAMP level pretreated for 30 mins followed by PACAP stimulation measured after 1 hr by cAMP-Glo assay. The data set is classed as cell-based. Particulars: for Activity: filed as antagonist, time 90.0 min, DDE = dose-dependent effect.

Data set [11] concerns Mus musculus. Description: Inhibition of PACAP-induced aversive behaviour in it dosed ddY mouse administered as single dose and measured for 30 mins. The data set is classed as functional, organism-based. Particulars: dose 10-100 pmol, DDE = dose-dependent effect.
Data set [12] has as its system Mus musculus. Description: Antiallodynic activity in ddY mouse assessed as inhibition of spinal nerve ligation-evoked mechanical allodynia at 10 pmol administered via IT as single dose and measured after 2 to 4 hrs. Particulars: time 2-4 hrs. It counts as functional, organism-based.
Data set [13] is described as follows: Aqueous solubility of the compound in phosphate buffered saline at 100 uM at pH 7.4 by HPLC analysis. It counts as physicochemical.
The nature of data set [14]: Cmax in C57BL/6J mouse at 30 mg/kg, ip measured up to 24 hrs by LC-MS/MS analysis. It counts as ADME, organism-based. On the set-up: time < 24 hrs, dose 30 mg/kg, route ip. Particulars: in vivo.
Data set [15] can be described thus: Half life in C57BL/6J mouse at 30 mg/kg, po measured up to 24 hrs by LC-MS/MS analysis. It counts as ADME, organism-based. Particulars: in vivo.
The test system of data set [16] is Mus musculus. Description: Antiallodynic activity in ddY mouse assessed as inhibition of SNL-induced mechanical allodynia at 30 mg/kg, ip administered once daily for 7 days and measured for 3 days after termination of repetitive drug administration. The data set is classed as functional, organism-based. Particulars: time 7.0 day.
Data set [17] in a line: Permeability of the compound across apical to basolateral side in human Caco-2 cells at 25 uM incubated for 2 hrs by LC/MS/MS analysis. It counts as ADME, cell-based. Particulars: read-out: permeability. Background: Caco-2 monolayers are a common model of the intestinal barrier.
Data set [18] is described as follows: Cmax in C57BL/6J mouse at 30 mg/kg, po measured up to 24 hrs by LC-MS/MS analysis. The data set is classed as ADME, organism-based. On the set-up: dose 30 mg/kg, time < 24 hrs, route po. Particulars: in vivo.
A short description of data set [19]: Metabolic stability in human liver microsomes assessed as parent compound remaining in presence of NADPH at 0.5 uM measured after 10 mins by LC-MS/MS analysis. The data set is classed as ADME, Microsome. Particulars: read-out: Stability.
A short description of data set [20]: Tmax in C57BL/6J mouse at 30 mg/kg, po measured up to 24 hrs by LC-MS/MS analysis. It counts as ADME, organism-based. Particulars: in vivo.
Data set [21] can be described thus: Metabolic stability in mouse liver microsomes assessed as parent compound remaining in presence of NADPH at 0.5 uM measured after 10 mins by LC-MS/MS analysis. The data set is classed as ADME, Microsome. Particulars: read-out: Stability.
Data set [22] can be described thus: Tmax in C57BL/6J mouse at 30 mg/kg, ip measured up to 24 hrs by LC-MS/MS analysis. It counts as ADME, organism-based. Particulars: in vivo.

As for `Nc1nc2c(c(=O)[nH]1)C(c1cccc(Cl)c1)CC(=O)N2` (centres undefined), the result in data set [1] was Active.
In general, half-life refers to the time in which the quantity being followed falls by half. Read a high half-life as slow loss. A word on the pIC50: it is the IC50 on a negative log10 scale, so that one unit is a factor of ten. For orientation: solubility means the concentration that dissolves in the medium under given conditions. Read a high solubility as a readily soluble substance. A word on the Cmax: it is the maximum level reached in the sampled fluid or tissue. As usually defined, the Tmax is the time from dosing to the highest level. Consider `Nc1nc2c(c(=O)[nH]1)C(c1cccc(OC(F)(F)F)c1)CC(=O)N2` (centres undefined), for which the fraction unbound at 5 h is 0.298 in data set [2] and 0.11 in data set [9]. Moreover, the remaining at 1 h, 0.5 µM stood at 93% in [3] and 92% in data set [4]. Also, the results for the half-life in [5] and in data set [15] were 2.4 h and 2.75 h, respectively. The outcome (in the data set with Mus musculus [6]; in the data set with Mus musculus [7]; with Mus musculus [8]; in data set [1]; in the data set with Mus musculus [12]; with Mus musculus [16]) was Active. Also, the pIC50 in data set [10] was 9.96. Besides, the Activity entry in data set [10] was “Dde”. Further, the inhibition entry with Mus musculus [11] is “Dde”. Further, the concentration in solution in data set [13] (solubility at 100 µM) was 93.3 µM (≈ 31.7 µg/mL). For the same compound, the Cmax in data set [14] stood at 40.6 µM; in [18] it was 20.8 µM. In addition, the Papp A→B at 2 h, 25 µM in [17] stood at 1.6 ×10⁻⁶ cm/s. Besides, the remaining at 10 min, 0.5 µM was determined as 95% in data set [19] and 91% in data set [21]. For the same compound, the Tmax came to 0.83 h in data set [20] and 1 h in [22].
Take `Nc1nc2c(c(=O)[nH]1)C(c1cccc(Br)c1)CC(=O)N2` (centres undefined): in [1], the result was Active.
Regarding `CCCOc1cc(C2CC(=O)Nc3nc(N)[nH]c(=O)c32)ccc1OC` (centres undefined), the result in data set [1] was Active.
On the same count and under the same terms, to `Nc1nc2c(c(=O)[nH]1)C(c1ccc(F)c(F)c1)CC(=O)N2` (centres undefined) belongs “Active”; to `CCCOc1ccc(C2CC(=O)Nc3nc(N)[nH]c(=O)c32)cc1OC` (centres undefined), “Active”; to `CCCOc1cccc(C2CC(=O)Nc3nc(N)[nH]c(=O)c32)c1` (centres undefined), “Active”.
As to `CCOc1cccc(C2CC(=O)Nc3nc(N)[nH]c(=O)c32)c1` (centres undefined), the values for the fraction unbound at 5 h in data set [2] and in data set [9] were 0.474 and 0.345, respectively. Also, the remaining at 1 h, 0.5 µM in data set [3] amounted to 84%; in data set [4], 93%. Moreover, the half-life in [5] was 2.29 h; in data set [15] it was 1.32 h. The outcome (with Mus musculus [8]; in data set [1]) was Active. Besides, the inhibition result in the data set with Mus musculus [11] was “Dde”. The amount in solution in [13] (solubility at 100 µM) came to 27.9 µM (≈ 8.38 µg/mL). The Cmax in data set [14] was 29.3 µM; in data set [18], 1.93 µM. The Papp A→B at 2 h, 25 µM in data set [17] was found to be 0.3 ×10⁻⁶ cm/s. Further, the remaining at 10 min, 0.5 µM in data set [19] stood at 93%; in [21], 92%. The Tmax in data set [20] and in data set [22] was 0.25 h throughout.
For `CCc1cccc(C2CC(=O)Nc3nc(N)[nH]c(=O)c32)c1` (centres undefined), in [1], the outcome was Active.
As to `CCCc1cccc(C2CC(=O)Nc3nc(N)[nH]c(=O)c32)c1` (centres undefined), the outcome in [1] was Active.
The same measure, in the same setting: to `CCOc1ccc(C2CC(=O)Nc3nc(N)[nH]c(=O)c32)cc1Br` (centres undefined) belongs “Active”; to `CCOc1ccc(C2CC(=O)Nc3nc(N)[nH]c(=O)c32)cc1C` (centres undefined), “Active”; to `C=CCOc1cccc(C2CC(=O)Nc3nc(N)[nH]c(=O)c32)c1` (centres undefined), “Active”.
On the same count and under the same terms, to `CCOc1ccc(C2CC(=O)Nc3nc(N)[nH]c(=O)c32)cc1OC` (centres undefined) belongs “Active”.
Same read-out and setting: to `CCOc1cc(C2CC(=O)Nc3nc(N)[nH]c(=O)c32)ccc1OC` (centres undefined) belongs “Active”; to `CCCCc1cccc(C2CC(=O)Nc3nc(N)[nH]c(=O)c32)c1` (centres undefined), “Active”.
Consider `CCOc1ccc(C2CC(=O)Nc3nc(N)[nH]c(=O)c32)cc1OCC` (centres undefined), for which, in data set [1], the outcome was Active.
`COc1cccc(C2CC(=O)Nc3nc(N)[nH]c(=O)c32)c1` (centres undefined): the outcome in data set [1] was Active.
Same read-out and setting: to `CCOc1ccc(C2CC(=O)Nc3nc(N)[nH]c(=O)c32)cc1Cl` (centres undefined) belongs “Active”.
In the case of `C=CCOc1ccc(C2CC(=O)Nc3nc(N)[nH]c(=O)c32)cc1OC` (centres undefined), the fraction unbound at 5 h in data set [2] is 0.505; in data set [9], 0.304. Moreover, the figures for the remaining at 1 h, 0.5 µM in data set [3] and in data set [4] were 94% and 91%, respectively. Besides, the results for the half-life in [5] and in data set [15] were 2.19 h and 1.72 h, respectively. Moreover, the result (with Mus musculus [6]; in the data set with Mus musculus [7]; in the data set with Mus musculus [8]; in data set [1]; in the data set on Mus musculus [12]) was Active. Moreover, the pIC50 in data set [10] is 8.83. Also, in [10], the Activity result is “Dde”. The inhibition result in the data set on Mus musculus [11] is “Dde”. Also, in [13], the solubility at 100 µM turned out to be 92.2 µM (≈ 31.6 µg/mL). In addition, the Cmax was found to be 14.3 µM in data set [14] and 0.79 µM in data set [18]. The Papp A→B at 2 h, 25 µM in data set [17] was 0.3 ×10⁻⁶ cm/s. Also, the remaining at 10 min, 0.5 µM is 93% in data set [19] and 96% in [21]. Also, the Tmax turned out to be 0.5 h in data set [20] and 0.67 h in data set [22].
